Experiments:
PIM1 (human) = PIM1 (human) (UniProt P11309); experiment: Flashplate
MAPK1 (human) = MAPK1 (human) (UniProt P28482); experiment: Flashplate
CLK2 (human) = CLK2 (human) (UniProt P49760); experiment: Flashplate
CAMK2G (human) = CAMK2G (human) (UniProt Q13555); experiment: Flashplate
MAP4K2 (human) = MAP4K2 (human) (UniProt Q12851); experiment: Flashplate
MARK3 (human) = MARK3 (human) (UniProt P27448); experiment: Flashplate
AKT2 (human) = AKT2 (human) (UniProt P31751); experiment: Flashplate
MINK1 (human) = MINK1 (human) (UniProt Q8N4C8); experiment: Flashplate
SRPK1 (human) = SRPK1 (human) (UniProt Q96SB4); experiment: Flashplate
DYRK4 (human) = DYRK4 (human) (UniProt Q9NR20); experiment: Flashplate
DYRK3 (human) = DYRK3 (human) (UniProt O43781); experiment: Flashplate
HIPK4 (human) = HIPK4 (human) (UniProt Q8NE63); experiment: Flashplate
TSSK2 (human) = TSSK2 (human) (UniProt Q96PF2); experiment: Flashplate
LYN (human) = LYN (human) (UniProt P07948); experiment: HTRF
MET (human) = MET (human) (UniProt P08581); experiment: HTRF
INSR (human) = INSR (human) (UniProt P06213); experiment: HTRF
FGFR1 (human) = FGFR1 (human) (UniProt P11362); experiment: HTRF
EPHA2 (human) = EPHA2 (human) (UniProt P29317); experiment: HTRF
FRK (human) = FRK (human) (UniProt P42685); experiment: HTRF
FLT1 (human) = FLT1 (human) (UniProt P17948); experiment: HTRF
KDR (human) = KDR (human) (UniProt P35968); experiment: HTRF
IGF1R (human) = IGF1R (human) (UniProt P08069); experiment: HTRF
FGFR3 (human) = FGFR3 (human) (UniProt P22607); experiment: HTRF
ABL1 (human) = ABL1 (human) (UniProt P00519); experiment: HTRF
SRC (human) = SRC (human) (UniProt P12931); experiment: HTRF
BLK (human) = BLK (human) (UniProt P51451); experiment: HTRF
NTRK2 (human) = NTRK2 (human) (UniProt Q16620); experiment: HTRF
MATK (human) = MATK (human) (UniProt P42679); experiment: HTRF
FLT3 (human) = FLT3 (human) (UniProt P36888); experiment: HTRF
LCK (human) = LCK (human) (UniProt P06239); experiment: HTRF
FYN (human) = FYN (human) (UniProt P06241); experiment: HTRF
FLT4 (human) = FLT4 (human) (UniProt P35916); experiment: HTRF
TYK2 JH1 JH2 (human) = TYK2 JH1 JH2 (human) (UniProt P29597); experiment: HTRF
FER (human) = FER (human) (UniProt P16591); experiment: HTRF
BTK (human) = BTK (human) (UniProt Q06187); experiment: HTRF
CSF1R (human) = CSF1R (human) (UniProt P07333); experiment: HTRF
RET (human) = RET (human) (UniProt P07949); experiment: HTRF
KIT (human) = KIT (human) (UniProt P10721); experiment: HTRF
ERBB4 (human) = ERBB4 (human) (UniProt Q15303); experiment: HTRF
SRMS (human) = SRMS (human) (UniProt Q9H3Y6); experiment: HTRF
TYRO3 (human) = TYRO3 (human) (UniProt Q06418); experiment: HTRF
NTRK1 (human) = NTRK1 (human) (UniProt P04629); experiment: HTRF

Sequence of FGFR3 (human) (P22607 whole entry, looked up): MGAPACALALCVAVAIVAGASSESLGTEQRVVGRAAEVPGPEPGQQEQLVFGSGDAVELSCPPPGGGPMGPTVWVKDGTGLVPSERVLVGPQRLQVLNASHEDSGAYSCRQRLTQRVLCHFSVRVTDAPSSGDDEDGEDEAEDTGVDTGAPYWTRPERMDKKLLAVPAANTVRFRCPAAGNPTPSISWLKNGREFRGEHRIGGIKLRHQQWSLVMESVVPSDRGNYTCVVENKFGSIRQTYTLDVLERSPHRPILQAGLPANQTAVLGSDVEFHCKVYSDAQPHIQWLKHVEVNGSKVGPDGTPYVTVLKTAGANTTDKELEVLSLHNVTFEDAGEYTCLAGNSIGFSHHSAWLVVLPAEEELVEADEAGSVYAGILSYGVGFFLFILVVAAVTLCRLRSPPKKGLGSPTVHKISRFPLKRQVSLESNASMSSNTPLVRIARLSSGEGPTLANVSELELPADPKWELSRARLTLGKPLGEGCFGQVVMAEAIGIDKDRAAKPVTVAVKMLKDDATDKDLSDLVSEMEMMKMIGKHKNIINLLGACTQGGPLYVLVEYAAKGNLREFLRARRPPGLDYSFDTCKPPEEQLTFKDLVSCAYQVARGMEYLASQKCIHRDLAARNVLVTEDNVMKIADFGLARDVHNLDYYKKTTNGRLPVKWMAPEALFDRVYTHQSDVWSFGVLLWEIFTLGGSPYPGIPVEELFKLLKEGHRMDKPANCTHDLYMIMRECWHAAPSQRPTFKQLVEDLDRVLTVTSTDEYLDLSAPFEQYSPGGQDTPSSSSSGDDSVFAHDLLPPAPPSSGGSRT
Sequence of TYRO3 (human) (Q06418 whole entry, looked up): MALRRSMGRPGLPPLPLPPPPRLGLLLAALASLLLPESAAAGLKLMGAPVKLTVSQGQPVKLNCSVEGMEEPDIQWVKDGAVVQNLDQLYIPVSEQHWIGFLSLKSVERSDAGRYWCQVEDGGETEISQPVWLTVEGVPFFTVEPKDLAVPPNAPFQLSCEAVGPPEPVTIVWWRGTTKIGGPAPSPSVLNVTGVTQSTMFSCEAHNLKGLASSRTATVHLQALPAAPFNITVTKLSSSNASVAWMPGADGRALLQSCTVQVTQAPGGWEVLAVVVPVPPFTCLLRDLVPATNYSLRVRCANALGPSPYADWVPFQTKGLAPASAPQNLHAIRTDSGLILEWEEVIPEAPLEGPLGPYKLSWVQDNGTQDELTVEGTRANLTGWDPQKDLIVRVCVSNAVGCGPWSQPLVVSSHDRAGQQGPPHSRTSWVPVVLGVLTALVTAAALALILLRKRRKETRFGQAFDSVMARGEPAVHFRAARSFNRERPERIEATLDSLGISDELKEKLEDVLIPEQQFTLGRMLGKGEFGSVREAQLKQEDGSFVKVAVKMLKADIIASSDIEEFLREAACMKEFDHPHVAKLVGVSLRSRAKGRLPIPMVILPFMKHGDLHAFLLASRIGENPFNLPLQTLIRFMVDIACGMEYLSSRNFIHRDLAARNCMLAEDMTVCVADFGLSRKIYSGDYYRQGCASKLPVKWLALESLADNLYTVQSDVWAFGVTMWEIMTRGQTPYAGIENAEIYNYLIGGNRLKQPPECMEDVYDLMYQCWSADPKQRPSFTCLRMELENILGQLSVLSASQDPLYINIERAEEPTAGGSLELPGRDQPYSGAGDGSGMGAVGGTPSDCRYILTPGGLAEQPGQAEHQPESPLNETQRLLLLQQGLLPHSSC
Sequence of DYRK4 (human) (Q9NR20 whole entry, looked up): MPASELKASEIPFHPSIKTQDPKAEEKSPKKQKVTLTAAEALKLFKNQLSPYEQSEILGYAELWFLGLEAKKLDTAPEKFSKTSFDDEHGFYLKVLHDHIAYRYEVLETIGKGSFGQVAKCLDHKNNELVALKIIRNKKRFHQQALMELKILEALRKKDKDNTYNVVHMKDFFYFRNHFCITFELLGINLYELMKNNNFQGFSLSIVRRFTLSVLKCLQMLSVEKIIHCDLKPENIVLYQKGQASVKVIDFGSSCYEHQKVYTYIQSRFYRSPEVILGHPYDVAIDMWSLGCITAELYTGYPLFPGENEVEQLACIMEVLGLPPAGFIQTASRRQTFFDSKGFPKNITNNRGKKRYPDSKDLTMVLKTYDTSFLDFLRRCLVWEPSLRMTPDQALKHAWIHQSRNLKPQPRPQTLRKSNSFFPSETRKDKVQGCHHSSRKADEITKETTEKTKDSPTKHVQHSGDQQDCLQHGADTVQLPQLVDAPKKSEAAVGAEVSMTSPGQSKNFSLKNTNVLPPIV
Sequence of DYRK3 (human) (O43781 whole entry, looked up): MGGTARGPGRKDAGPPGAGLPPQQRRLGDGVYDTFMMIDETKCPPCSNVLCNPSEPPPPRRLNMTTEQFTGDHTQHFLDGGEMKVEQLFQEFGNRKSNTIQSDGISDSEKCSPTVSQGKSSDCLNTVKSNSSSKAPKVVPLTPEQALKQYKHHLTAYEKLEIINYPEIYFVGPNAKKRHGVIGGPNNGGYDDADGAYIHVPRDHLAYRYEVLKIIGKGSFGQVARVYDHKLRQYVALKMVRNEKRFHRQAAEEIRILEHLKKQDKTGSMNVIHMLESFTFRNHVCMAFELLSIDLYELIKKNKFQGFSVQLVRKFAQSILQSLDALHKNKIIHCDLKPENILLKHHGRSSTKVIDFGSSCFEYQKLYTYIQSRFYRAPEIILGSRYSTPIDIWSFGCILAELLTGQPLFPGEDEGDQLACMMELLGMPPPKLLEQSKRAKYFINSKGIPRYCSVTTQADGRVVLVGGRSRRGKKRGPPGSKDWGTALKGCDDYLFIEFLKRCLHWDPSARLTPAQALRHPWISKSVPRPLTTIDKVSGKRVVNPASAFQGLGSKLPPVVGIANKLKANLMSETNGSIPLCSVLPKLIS
Sequence of FRK (human) (P42685 whole entry, looked up): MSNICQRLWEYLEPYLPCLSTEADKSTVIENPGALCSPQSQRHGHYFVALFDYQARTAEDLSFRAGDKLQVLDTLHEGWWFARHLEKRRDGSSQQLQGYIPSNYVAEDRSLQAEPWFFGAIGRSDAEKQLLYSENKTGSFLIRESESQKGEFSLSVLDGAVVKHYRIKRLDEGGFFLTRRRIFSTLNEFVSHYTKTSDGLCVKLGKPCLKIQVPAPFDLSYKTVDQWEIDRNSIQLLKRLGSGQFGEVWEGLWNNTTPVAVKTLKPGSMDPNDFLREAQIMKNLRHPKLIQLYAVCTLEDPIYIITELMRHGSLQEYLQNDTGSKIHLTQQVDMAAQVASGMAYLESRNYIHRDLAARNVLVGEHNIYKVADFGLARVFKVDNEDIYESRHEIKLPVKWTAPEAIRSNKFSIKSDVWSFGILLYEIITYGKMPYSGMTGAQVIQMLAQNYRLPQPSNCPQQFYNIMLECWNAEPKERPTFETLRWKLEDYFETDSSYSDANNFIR
Sequence of TYK2 JH1 JH2 (human) (P29597 whole entry, looked up): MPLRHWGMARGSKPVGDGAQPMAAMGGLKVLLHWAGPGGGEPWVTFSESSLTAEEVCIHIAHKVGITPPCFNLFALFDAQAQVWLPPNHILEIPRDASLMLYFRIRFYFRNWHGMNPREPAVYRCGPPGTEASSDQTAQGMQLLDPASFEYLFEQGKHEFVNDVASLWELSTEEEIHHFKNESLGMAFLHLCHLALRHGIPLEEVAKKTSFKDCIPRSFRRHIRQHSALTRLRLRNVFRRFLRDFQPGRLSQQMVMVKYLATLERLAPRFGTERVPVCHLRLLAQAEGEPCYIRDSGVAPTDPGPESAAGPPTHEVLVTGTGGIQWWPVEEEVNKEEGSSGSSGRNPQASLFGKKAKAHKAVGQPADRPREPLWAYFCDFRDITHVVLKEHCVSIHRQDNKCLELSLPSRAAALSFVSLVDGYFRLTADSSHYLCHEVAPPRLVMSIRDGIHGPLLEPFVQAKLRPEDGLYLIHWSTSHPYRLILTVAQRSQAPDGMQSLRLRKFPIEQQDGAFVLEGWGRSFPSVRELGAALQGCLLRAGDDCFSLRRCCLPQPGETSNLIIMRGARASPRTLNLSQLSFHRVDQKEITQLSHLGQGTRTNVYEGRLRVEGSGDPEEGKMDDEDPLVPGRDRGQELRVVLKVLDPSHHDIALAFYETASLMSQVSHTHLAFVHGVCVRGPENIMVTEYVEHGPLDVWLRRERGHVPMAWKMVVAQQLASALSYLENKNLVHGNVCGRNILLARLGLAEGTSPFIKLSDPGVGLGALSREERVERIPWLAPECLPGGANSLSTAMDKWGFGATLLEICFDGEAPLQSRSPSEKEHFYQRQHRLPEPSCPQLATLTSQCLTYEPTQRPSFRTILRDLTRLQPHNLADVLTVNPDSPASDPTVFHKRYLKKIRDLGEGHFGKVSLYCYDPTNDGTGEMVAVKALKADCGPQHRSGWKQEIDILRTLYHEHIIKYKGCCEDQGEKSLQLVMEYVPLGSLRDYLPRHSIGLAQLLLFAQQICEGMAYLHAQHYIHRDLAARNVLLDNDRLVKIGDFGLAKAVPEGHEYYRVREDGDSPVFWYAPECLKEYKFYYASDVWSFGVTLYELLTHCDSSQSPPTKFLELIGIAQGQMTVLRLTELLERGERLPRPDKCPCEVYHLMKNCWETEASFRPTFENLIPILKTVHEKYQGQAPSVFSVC
Sequence of CLK2 (human) (P49760 whole entry, looked up): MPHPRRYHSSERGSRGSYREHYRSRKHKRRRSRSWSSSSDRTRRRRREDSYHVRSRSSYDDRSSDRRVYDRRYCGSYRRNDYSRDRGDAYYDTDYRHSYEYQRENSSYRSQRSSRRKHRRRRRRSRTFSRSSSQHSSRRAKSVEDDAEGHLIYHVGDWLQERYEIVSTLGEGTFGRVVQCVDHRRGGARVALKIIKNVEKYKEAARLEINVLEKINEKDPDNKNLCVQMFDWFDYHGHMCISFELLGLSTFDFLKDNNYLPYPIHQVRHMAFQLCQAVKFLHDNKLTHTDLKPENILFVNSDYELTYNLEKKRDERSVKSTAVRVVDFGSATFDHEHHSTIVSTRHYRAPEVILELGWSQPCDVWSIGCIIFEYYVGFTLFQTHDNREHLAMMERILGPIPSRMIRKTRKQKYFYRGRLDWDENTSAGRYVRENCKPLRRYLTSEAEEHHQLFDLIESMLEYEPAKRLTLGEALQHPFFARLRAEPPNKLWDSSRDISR

Ki (PIM1 (human)): 501 nM | Ki (MAPK1 (human)): 5010 nM | Ki (CLK2 (human)): 631 nM | Ki (CAMK2G (human)): 1580 nM | Ki (MAP4K2 (human)): 50.1 nM | Ki (MARK3 (human)): 3.98 nM | Ki (AKT2 (human)): > 7940 nM | Ki (MINK1 (human)): 200 nM | Ki (SRPK1 (human)): > 7940 nM | Ki (DYRK4 (human)): > 7940 nM | Ki (DYRK3 (human)): 316 nM | Ki (HIPK4 (human)): 2000 nM | Ki (TSSK2 (human)): > 1580 nM | Ki (LYN (human)): 1000 nM | Ki (MET (human)): 501 nM | Ki (INSR (human)): 501 nM | Ki (FGFR1 (human)): 251 nM | Ki (EPHA2 (human)): > 3160 nM | Ki (FRK (human)): 63.1 nM | Ki (FLT1 (human)): 200 nM | Ki (KDR (human)): 631 nM | Ki (IGF1R (human)): > 2000 nM | Ki (FGFR3 (human)): 158 nM | Ki (ABL1 (human)): > 631 nM | Ki (SRC (human)): > 2000 nM | Ki (BLK (human)): 200 nM | Ki (NTRK2 (human)): 794 nM | Ki (MATK (human)): 501 nM | Ki (FLT3 (human)): 50.1 nM | Ki (LCK (human)): 2000 nM | Ki (FYN (human)): > 794 nM | Ki (FLT4 (human)): 15.8 nM | Ki (TYK2 JH1 JH2 (human)): 1260 nM | Ki (FER (human)): 50.1 nM | Ki (BTK (human)): > 1260 nM | Ki (CSF1R (human)): 126 nM | Ki (RET (human)): 63.1 nM | Ki (KIT (human)): 1260 nM | Ki (ERBB4 (human)): 3980 nM | Ki (SRMS (human)): > 1580 nM | Ki (TYRO3 (human)): 1000 nM | Ki (NTRK1 (human)): 1260 nM
SMILES: O=C1c2ccccc2-c2n[nH]c3cccc1c23

Source: the kinase profiling compilation of Christmann-Franck et al. (2016)
